In patent publication EP0960886B1, “Peptide T and related peptides in the treatment of inflammation, including multiple sclerosis” (priority 1992, dated 1993):

Legend:
p56^lck = assay: lck specific tyrosine kinase assay (autophosphorylation) in PBL blasts (Example 10); type: cell-based; parameters: key: ++++: highly active; +: slightly active; conditions: Unstimulated PBL blasts; Peptide T 10^-9 M for 2 hours; without P.T. +++
Method: PBL (peripheral blood leukocyte) blasts were prepared by incubating PBMC at 37°C with PHA (10 µg/ml) in RPMI + 10% FBS for 48 hours followed by addition of interleukin-2 and incubation for a subsequent 96 hours. Cells were washed free of IL-2 and incubated for 24 hours then washed free of FBS and incubated for 24 hours. PBL blasts remained either […] or were. treated with OKT4A (anti-CD4) at 10 µg/ml for 1 hour followed by rat anti-mouse Ig at 5 µg/ml for 5 minutes to enhance lck activity. PBL blasts were pretreated with Peptide T (10^-9 M) for 2 hours, then washed extensively before anti-CD4 stimulation. Following immunoprecipitation with anti-lck-Protein A conjugates and incubation (37°C, 10 minutes) with ^32P-ATP, p56^lck autophosphorylation was determined by autoradiography and used as a measure of p56^lck activity.
Peptide T will inhibit the PHA-induced activation and anti-CD4 dependent enhancement of p56^lck activity as we have determined (Table V) by an lck specific tyrosine kinase assay. p56^lck is a CD4 associated tyrosine kinase involved in T cell activation and transmembrane signalling (Janeway C.A. Ann. Rev. Immunol. 10 645-674 (1992)). […]

Molt-4 = assay: Growth of spontaneously proliferating cell line Molt-4; type: cell-based; conditions: p56^lck negative human T lymphoma cell line
Description: Molt-4 is a human T lymphoma cell line, p56^lck negative, and Jurkat is a human T cell line, p56^lck positive, that will grow spontaneously in the absence of exogenous stimuli.

[1] = Health-related quality of life and symptom assessment in MS patients (MS-modified MOS-HIV, PGWB, MS Symptom Checklist); type: in vivo, human
Description: To evaluate the impact of drug-related change on overall health and symptom burden, MS patients were followed routinely with both recognized and newly developed health-related quality of life instruments: an MS-modified version of the 30-item Medical Outcomes Study-HIV Survey (MOS-HIV) originally developed by Dr. Albert Wu, the 22-item Psychological General Well-Being Schedule (PGWB) developed by Dr. Harold Dupuy, and the MS Symptom Checklist developed for this study. These instruments, of which the first two have previously been validated and shown to be responsive to change in other disease states, allow quantitation of self-reported symptom variation (see Brook et al., Medical Care 17(7 Suppl.) 1-54 (1979), Fazio "A Concurrent Validation Survey of the NCHS General Well-Being Schedule", US Dept of Health, Education and Welfare, National Center for Health Statistics, Hyattsville, Maryland, USA 1977, McDowell and Newell "Measuring Health: A Guide to Rating Scales and Questionnaires", Oxford University Press 1987, Stewart et al., Medical Care 26 724-35 (1988), JAMA 262 907-13 (1989), and "Measuring Functioning and Well-Being of Patients with Chronic Conditions: The Medical Outcomes Study Approach", Duke University Press 1992, Wachtel et al., Ann. Int. Med. 116 129-137 (1992), Ware et al., "Conceptualization and Measurement of Health for Adults in the Health Insurance Survey, Vol III: Mental Health", Rand Corporation 1979, and Wu et al., Medical Care 29(8) 786-98 (1991)).
Given the small number of patients involved in this report, some of whom received Peptide T in an on-off-on design, it would not be expected that statistical significance might be obtained. To facilitate establishment of any trends, three patients who stopped taking Peptide T and then restarted the drug some weeks later after a new baseline period appear twice in the following analysis. In this manner, 8 baseline and repeated measures (at weeks 0, 4, 8, and 12) were defined and analysed using two-tailed paired t-tests: see Table XIV.

gp120 = conditions: rat hippocampal membranes; cited from earlier work

SMILES: C[C@@H](N)C(=O)N[C@@H](CO)C(=O)N[C@H](C(=O)N[C@H](C(=O)N[C@H](C(=O)N[C@@H](CC(N)=O)C(=O)N[C@@H](Cc1ccc(O)cc1)C(=O)N[C@H](C(N)=O)[C@@H](C)O)[C@@H](C)O)[C@@H](C)O)[C@@H](C)O [Peptide T, D-Ala-Ser-Thr-Thr-Thr-Asn-Tyr-Thr-NH2]
- activity of p56^lck (p56^lck): +
- growth of Molt-4 cell line (Molt-4): did not significantly affect
- malaise ([1]; 4 and 8 weeks): statistacally significant
- forgetfulness and slowness in thinking ([1]; human, in vivo): trend towards improvement
- Mean improvements in measures of energy ([1]; week 12, all three instruments): exceeded 2 standard deviations
- physical discomfort, mental health and health distress (MS-modified MOS-HIV) ([1]; weeks 4, 8 and 12): either a trend or statistically significant improvement
- energy, general quality of life, well-being and unweighted summary score (MS-modified MOS-HIV) ([1]; weeks 4, 8 and 12 vs baseline, two-tailed paired t-tests): Improvement was statistically significant
- concentrations that inhibit the binding of radiolabelled gp120 (gp120): 0.1 nM
